Earlier results on 1 molecule are cited in patent US6730813B2, “Method for producing n-(phosphonomethyl) glycine” (Monsanto Technology LLC, priority 2000, dated 2004).

Like-named read-outs stand apart in the source and are kept apart here.

`O=C(O)CNCP(=O)(O)O` [glyphosate, N-(phosphonomethyl)glycine]: the “solubility in organic solvents” value (organic solvents, compared with water) is given as “much lower”. In addition, the solubility in water (5° C.) is recorded as 0.8%, the solubility in water (20° C.) is listed as 1.1% and the solubility in water (95° C.) was 6.5%.
